Data taken from patent publication US20110178131A1, “Compounds Which Have Activity At M1 Receptor And Their Uses In Medicine” (priority 2008, published 2011).
Counter-ions that a name gives are not always drawn.

Target: T1, human muscarinic M1 receptors (Homo sapiens, UniProt P11229)
T1 construct: expressed in transfected cells
T1 sequence (P11229 1-460): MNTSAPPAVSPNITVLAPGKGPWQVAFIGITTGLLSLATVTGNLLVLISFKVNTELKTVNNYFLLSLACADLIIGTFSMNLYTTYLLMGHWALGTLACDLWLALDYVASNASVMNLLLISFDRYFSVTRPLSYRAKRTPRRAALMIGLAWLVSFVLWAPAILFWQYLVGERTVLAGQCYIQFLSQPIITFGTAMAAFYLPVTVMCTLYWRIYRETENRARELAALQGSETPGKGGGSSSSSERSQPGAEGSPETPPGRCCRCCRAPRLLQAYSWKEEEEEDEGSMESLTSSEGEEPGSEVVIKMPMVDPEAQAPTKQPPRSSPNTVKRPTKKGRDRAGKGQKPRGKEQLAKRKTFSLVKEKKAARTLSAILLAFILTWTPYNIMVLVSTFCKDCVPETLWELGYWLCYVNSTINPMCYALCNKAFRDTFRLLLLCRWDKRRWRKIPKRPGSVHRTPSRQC
Assay: FLIPR experiments on M1 receptors (calcium response, agonism)
Assay type: cell-based
Conditions: CHO-M1 cells
Experimental: FLIPR Experiments on M1 Receptors to Determine a Agonist/Antagonist Potency
Compounds of the invention may be characterized in a functional assay to determine their ability to activate the intracellular calcium pathway in CHO cells with stable expression of human muscarinic M1 receptors using FLIPR (Fluorometric Imaging Plate Reader) technology. Briefly, CHO-M1 cells were plated (15,000/well) and allowed to grow overnight at 37 degrees. Media were removed and 30 μL loading buffer (HBSS with 2.5 mM probenicid, 2 μM Fluo-4, 500 μM Brilliant Black, pH 7.4) was added. After incubation at 37 degrees for 90 minutes, 10 μL of the assay buffer (HBSS with 2.5 mM probenecid, pH 7.4) containing test compounds was added to each well on the FLIPR instrument. Calcium response was monitored to determine agonism. […] Calcium response was then monitored again to determine compound's antagonism to acetylcholine. […] Results were imported into ActivityBase data analysis suite (ID Business Solution Inc., Parsippany, N.J.) where the curves were analysed by non-linear curve fitting and the resulting pEC50/fpKi were calculated. The maximum asymptotes of agonist compounds were calculated as percentage of maximum FLIPR response induced by carbamoylcholine chloride added as control on the same compound plates.

EC50 (FLIPR calcium response, agonism, read-out: average pEC50 at the muscarinic M1 receptor (converted)): < 3.16 µM
Emax (maximum asymptote as percentage of maximum FLIPR response induced by carbamoylcholine chloride, read-out: intrinsic activity): > 50%
Compound: COCC1CCC(N2CCC(n3c(=O)oc4ccc(C#N)cc43)CC2)CC1 (mixture of isomers) [Example 1, 3-(1-{4-[(Methyloxy)methyl]cyclohexyl}-4-piperidinyl)-2-oxo-2,3-dihydro-1,3-benzoxazole-5-carbonitrile hydrochloride]
